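Grown in 96-well plates, cells were treated for 48 hours with each compound at five concentrations. Insufficient inhibition: endpoint recorded as highest concentration tested. TGI marks complete inhibition of growth.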

One assay concerns 786-0 renal. Nature of the assay: NCI anticancer screen, dose series, 48 h.
`O=C1N[C@@H]2c3c(csc3Br)C(=O)[C@@H]2O1` came in with a TGI of more than 100 µM.

In turn, `Cc1cc(C)c2c(n1)S(=O)(=O)N(CCCN1CCN(c3cccc(C(F)(F)F)c3)CC1)/C(=C(\O)c1ccc(Cl)cc1)C2=O` yielded a TGI of 15.4 µM.

In turn, `CCn1c(=O)c2c3cc(O)ccc3oc2c2ccc(O)cc21` gave a TGI of more than 100 µM.

Turning to `O=C1CCC(NC(=O)c2ccccc2)C(=O)N1` (stereo not given), the TGI was more than 100 µM.

Another assay has as its system A498 renal. Briefly: NCI anticancer screen, dose series, 48 h.
`O=C1N[C@@H]2c3c(csc3Br)C(=O)[C@@H]2O1` displayed a TGI of more than 100 µM.

Turning to `Cc1cc(C)c2c(n1)S(=O)(=O)N(CCCN1CCN(c3cccc(C(F)(F)F)c3)CC1)/C(=C(\O)c1ccc(Cl)cc1)C2=O`, the TGI was 16.9 µM.

On to `CCn1c(=O)c2c3cc(O)ccc3oc2c2ccc(O)cc21`, for which the TGI worked out at 55.5 µM.

For the compound `O=C1CCC(NC(=O)c2ccccc2)C(=O)N1` (stereo not given), the TGI is more than 100 µM.

The subject of the next assay is A549 NSCLC. Nature of the assay: NCI anticancer screen, dose series, 48 h.
Turning to `O=C1N[C@@H]2c3c(csc3Br)C(=O)[C@@H]2O1`, the TGI was more than 100 µM.

As to `Cc1cc(C)c2c(n1)S(=O)(=O)N(CCCN1CCN(c3cccc(C(F)(F)F)c3)CC1)/C(=C(\O)c1ccc(Cl)cc1)C2=O`, the TGI worked out at 13.1 µM.

In turn, `CCn1c(=O)c2c3cc(O)ccc3oc2c2ccc(O)cc21` had a TGI of 86.9 µM.

The compound `O=C1CCC(NC(=O)c2ccccc2)C(=O)N1` (stereo not given) came in with a TGI of more than 100 µM.

The subject of another assay is ACHN renal. Nature of the assay: NCI anticancer screen, dose series, 48 h.
On to `O=C1N[C@@H]2c3c(csc3Br)C(=O)[C@@H]2O1`, for which the TGI was more than 100 µM.

For the compound `Cc1cc(C)c2c(n1)S(=O)(=O)N(CCCN1CCN(c3cccc(C(F)(F)F)c3)CC1)/C(=C(\O)c1ccc(Cl)cc1)C2=O`, the TGI worked out at 13.8 µM.

`CCn1c(=O)c2c3cc(O)ccc3oc2c2ccc(O)cc21` gave a TGI of 66.1 µM.

For `O=C1CCC(NC(=O)c2ccccc2)C(=O)N1` (stereo not given), the TGI was more than 100 µM.

In another assay the test system is BT-549 breast. Nature of the assay: NCI anticancer screen, dose series, 48 h.
Turning to `O=C1N[C@@H]2c3c(csc3Br)C(=O)[C@@H]2O1`, the TGI is more than 100 µM.

`Cc1cc(C)c2c(n1)S(=O)(=O)N(CCCN1CCN(c3cccc(C(F)(F)F)c3)CC1)/C(=C(\O)c1ccc(Cl)cc1)C2=O` showed a TGI of 19.3 µM.

On to `CCn1c(=O)c2c3cc(O)ccc3oc2c2ccc(O)cc21`, for which the TGI worked out at 76.7 µM.

In turn, `O=C1CCC(NC(=O)c2ccccc2)C(=O)N1` (stereo not given) registered a TGI of more than 100 µM.

Another assay has as its system CAKI-1 renal. Nature of the assay: NCI anticancer screen, dose series, 48 h.
As for `O=C1N[C@@H]2c3c(csc3Br)C(=O)[C@@H]2O1`, the TGI was found to be 43.1 µM.

In the case of `Cc1cc(C)c2c(n1)S(=O)(=O)N(CCCN1CCN(c3cccc(C(F)(F)F)c3)CC1)/C(=C(\O)c1ccc(Cl)cc1)C2=O`, the TGI stood at 8.77 µM.

Compound `CCn1c(=O)c2c3cc(O)ccc3oc2c2ccc(O)cc21` yielded a TGI of more than 100 µM.

Consider `O=C1CCC(NC(=O)c2ccccc2)C(=O)N1` (stereo not given), for which the TGI was more than 100 µM.

In another assay the test system is CCRF-CEM leukemia. Briefly: NCI anticancer screen, dose series, 48 h.
The compound `O=C1N[C@@H]2c3c(csc3Br)C(=O)[C@@H]2O1` came in with a TGI of 40.1 µM.

In turn, `Cc1cc(C)c2c(n1)S(=O)(=O)N(CCCN1CCN(c3cccc(C(F)(F)F)c3)CC1)/C(=C(\O)c1ccc(Cl)cc1)C2=O` showed a TGI of more than 100 µM.

Regarding `CCn1c(=O)c2c3cc(O)ccc3oc2c2ccc(O)cc21`, the TGI is more than 100 µM.

The test system of another assay is COLO 205 colon. Briefly: NCI anticancer screen, dose series, 48 h.
In turn, `O=C1N[C@@H]2c3c(csc3Br)C(=O)[C@@H]2O1` registered a TGI of more than 100 µM.

`Cc1cc(C)c2c(n1)S(=O)(=O)N(CCCN1CCN(c3cccc(C(F)(F)F)c3)CC1)/C(=C(\O)c1ccc(Cl)cc1)C2=O`: the TGI stood at 3.58 µM.

Compound `CCn1c(=O)c2c3cc(O)ccc3oc2c2ccc(O)cc21` came in with a TGI of 43.9 µM.

Turning to `O=C1CCC(NC(=O)c2ccccc2)C(=O)N1` (stereo not given), the TGI is more than 100 µM.

The test system of the next assay is DU-145 prostate. Briefly: NCI anticancer screen, dose series, 48 h.
`O=C1N[C@@H]2c3c(csc3Br)C(=O)[C@@H]2O1` returned a TGI of more than 100 µM.

Regarding `Cc1cc(C)c2c(n1)S(=O)(=O)N(CCCN1CCN(c3cccc(C(F)(F)F)c3)CC1)/C(=C(\O)c1ccc(Cl)cc1)C2=O`, the TGI amounted to 19.9 µM.

In turn, `CCn1c(=O)c2c3cc(O)ccc3oc2c2ccc(O)cc21` registered a TGI of more than 100 µM.

On to `O=C1CCC(NC(=O)c2ccccc2)C(=O)N1` (stereo not given), for which the TGI was more than 100 µM.

Another assay relates to EKVX NSCLC. Nature of the assay: NCI anticancer screen, dose series, 48 h.
In the case of `O=C1N[C@@H]2c3c(csc3Br)C(=O)[C@@H]2O1`, the TGI was more than 100 µM.

In turn, `Cc1cc(C)c2c(n1)S(=O)(=O)N(CCCN1CCN(c3cccc(C(F)(F)F)c3)CC1)/C(=C(\O)c1ccc(Cl)cc1)C2=O` gave a TGI of 10.7 µM.

`CCn1c(=O)c2c3cc(O)ccc3oc2c2ccc(O)cc21` registered a TGI of 62.6 µM.

As to `O=C1CCC(NC(=O)c2ccccc2)C(=O)N1` (stereo not given), the TGI was more than 100 µM.

The subject of another assay is HCC-2998 colon. Nature of the assay: NCI anticancer screen, dose series, 48 h.
For `O=C1N[C@@H]2c3c(csc3Br)C(=O)[C@@H]2O1`, the TGI was 39.1 µM.

The compound `CCn1c(=O)c2c3cc(O)ccc3oc2c2ccc(O)cc21` gave a TGI of 50.9 µM.

Consider `O=C1CCC(NC(=O)c2ccccc2)C(=O)N1` (stereo not given), for which the TGI is more than 100 µM.

A further assay deals with HCT-116 colon. Nature of the assay: NCI anticancer screen, dose series, 48 h.
`O=C1N[C@@H]2c3c(csc3Br)C(=O)[C@@H]2O1` showed a TGI of more than 100 µM.

`Cc1cc(C)c2c(n1)S(=O)(=O)N(CCCN1CCN(c3cccc(C(F)(F)F)c3)CC1)/C(=C(\O)c1ccc(Cl)cc1)C2=O`: the TGI worked out at 11.9 µM.

Take `O=C1CCC(NC(=O)c2ccccc2)C(=O)N1` (stereo not given): the TGI was more than 100 µM.

In a further assay the test system is HCT-15 colon. Briefly: NCI anticancer screen, dose series, 48 h.
For `O=C1N[C@@H]2c3c(csc3Br)C(=O)[C@@H]2O1`, the TGI was more than 100 µM.

For `Cc1cc(C)c2c(n1)S(=O)(=O)N(CCCN1CCN(c3cccc(C(F)(F)F)c3)CC1)/C(=C(\O)c1ccc(Cl)cc1)C2=O`, the TGI was found to be 13.9 µM.

As for `CCn1c(=O)c2c3cc(O)ccc3oc2c2ccc(O)cc21`, the TGI was more than 100 µM.

`O=C1CCC(NC(=O)c2ccccc2)C(=O)N1` (stereo not given) registered a TGI of more than 100 µM.

The subject of another assay is HL-60(TB) leukemia. Nature of the assay: NCI anticancer screen, dose series, 48 h.
With `O=C1N[C@@H]2c3c(csc3Br)C(=O)[C@@H]2O1`, the TGI is 64.9 µM.

The compound `Cc1cc(C)c2c(n1)S(=O)(=O)N(CCCN1CCN(c3cccc(C(F)(F)F)c3)CC1)/C(=C(\O)c1ccc(Cl)cc1)C2=O` gave a TGI of 6.15 µM.

A further assay concerns HOP-62 NSCLC. Briefly: NCI anticancer screen, dose series, 48 h.
Compound `O=C1N[C@@H]2c3c(csc3Br)C(=O)[C@@H]2O1` gave a TGI of more than 100 µM.

As for `Cc1cc(C)c2c(n1)S(=O)(=O)N(CCCN1CCN(c3cccc(C(F)(F)F)c3)CC1)/C(=C(\O)c1ccc(Cl)cc1)C2=O`, the TGI stood at 37.1 µM.

The compound `CCn1c(=O)c2c3cc(O)ccc3oc2c2ccc(O)cc21` registered a TGI of more than 100 µM.

In turn, `O=C1CCC(NC(=O)c2ccccc2)C(=O)N1` (stereo not given) gave a TGI of more than 100 µM.

Values taken from PubChem BioAssay (NCI).
